Assay results published in US20240148835A1, “TREATING DISORDERS ASSOCIATED WITH DYRK1A DYSFUNCTION” (UNIVERSITY OF FLORIDA RESEARCH FOUNDATION, INCORPORATED, priority 2021, published 2024).
“Also recorded” adds a separate entry of the source.

Test system: Dyrk1a cHets
Assay: Neonatal (1-3)IGF-1 injection in Dyrk1a cHet pups: cortex mass, layer V soma size, p-S6
Format: in vivo, mouse
Description: We next aimed to increase mTOR signaling via pharmacological intervention. Because activation of TrkB receptor is decreased in cKOs, treating mice with exogenous BDNF may not be effective. To circumvent this issue while stimulating the same signaling cascades, we injected neonatal pups with (1-3)IGF-1 (GPE), a tripeptide cleaved from the N-terminus of IGF-1 (44). Pups were injected daily from P0 to P7 with 10 μg/g (1-3)IGF-1 or vehicle based on a previously described treatment paradigm (45). Eight hours post-injection on P7, pups were sacrificed, and brains were fixed (FIG. 7F).
(1-3)IGF-1 treatment: (1-3)IGF-1 was acquired from VWR/Bachem (catalog #H-2468.1000) and dissolved in saline with 0.01% BSA fresh every day. Intraperitoneal injections of 10 μg/g (1-3)IGF-1 or vehicle were delivered daily at 8 a.m. starting on P1 and ending on P7. […] Pups were individually removed, injected, and placed back in the home cage with the dam. On P7, 6 hours post-injection, pups were rapidly decapitated for downstream analysis.
Immunohistochemistry: Adult animals were perfused with 4% PFA, and pups underwent rapid decapitation and dissection. After 18 hours post-fixation in 4% PFA, brains were incubated in a 20% sucrose/PBS solution at 4° C. for 2-3 days and embedded in Tissue-Tek OCT compound (Sakura). 40 μm sections were collected on Superfrost/Plus slides and stained. The following primary antibodies were used following antigen retrieval (10 min. in boiling 10× citrate buffer): anti-cleaved caspase 3 (1:1000, Cell Signaling Technology, catalog #9661S), anti-Ctip2 (1:2000, Abcam, catalog #18465), anti-p-S6 Ser235/236 (1:2000, Cell Signaling Technology, catalog #4858S). AlexaFluor-488, -594, and -647-conjugated secondary antibodies (1:2000) were purchased from Invitrogen. DAPI was used for nuclear labeling (Invitrogen, catalog #D3571). Slides were mounted with Vectashield HardSet and images were obtained with an Olympus VS120 microscope and processed using the VS-DESKTOP software (Olympus) or ImageJ (NIH).
For p-S6 intensity, P0, P7, and adult sections were stained with Ctip2 and p-S6 (Ser235/236). […] After image acquisition, Ctip2+ neurons were measured for p-S6 mean gray intensity. 25-30 neurons were measured per section and 2 plane-matched sections were analyzed per animal.
For soma size analysis, sections were stained with NeuroTrace green fluorescent Nissl stain (1:100 dilution, Life Technologies catalog #N-21480) and washed with PBS. After image acquisition, somas in each layer in somatosensory cortex (51) were measured using the ImageJ freehand tool. Layers were denoted based on anatomical boundaries using DAPI staining. 30-35 somas were measured per layer and 2-3 plane-matched sections were analyzed per animal. This was done based on a previously published technique (8).

“(1-3)IGF-1: a tripeptide cleaved from the N-terminus of IGF-1; acquired from VWR/Bachem, CAS No. 32302-76-4 (GPE; Insulin-like growth factor 1; UniProt P05019 49-51, looked up, fragment)” was tested, and the “cortex mass of controls” value (control pups, 10 μg/g daily to P7) was “no effect”, the “p-S6 per layer V neuron in cHets” value (neonatal cHets, 10 μg/g daily to P7, Ctip2+ neurons) was “normal levels; also recorded: rescues the decreased p-S6” and the “soma size of layer V neurons in cHets” value (neonatal cHets, 10 μg/g daily to P7, Nissl stain) was “comparable to controls; also recorded: rescues the decreased soma size”. For the same substance, the “cortex mass of cHets” value (neonatal cHets, 10 μg/g daily to P7, analysed P7, vs vehicle) was “rescues the decreased cortex mass”.
